# Data reported in patent US20140051650A1, “VAGINAL COMPOSITIONS BASED ON ALKYL POLYGLUCOSIDES” (EFFIK S.A., priority 2011, published 2014).
# Tests used:
# Format in all cases: cell-based
# Conditions in all cases: substance alone
# [1] = system: Neisseria gonorrhoeae ATCC 43069; test: MIC against Neisseria gonorrhoeae
# Procedure: (§1) The Gardnerella vaginalis ATCC 14018 strain, the Neisseria gonorrhoeae ATCC 43069 strain and the Candida albicans ATCC 10231 strain were also used for the experiment.
# (§2) The other assayed microbial strains were cultured in the liquid media and in the incubation conditions specified in table A, following the operating procedure described above.
# (§3) The assay was carried out in 96-well microtitre plates. 50 μl of substance solution at the “mother” concentration alongside 50 μl of liquid medium at double concentration were deposited in the first well of each of the 8 rows while 50 μl of liquid medium at normal concentration were deposited in the remaining 11 wells. Starting from the first well of each row, 50 μl volumes were transferred from each well to the subsequent one 10 times, thus obtaining a series of 11 dilutions after doubling. The 12th well of each row was kept substance-free as a function of positive control of the bacterial growth.
# (§4) Subsequently, 50 μl of diluted bacterial inoculum as specified previously were deposited in all wells of the plate, except for the 11th of each row. Only the liquid medium at single concentration but bacteria-free, was deposited in the 11th well, with the aim of providing negative control for each row. The described scheme was used for the assay with each of the assayed microbial strains. […]
# [2] = system: Gardnerella vaginalis ATCC 14018; test: MIC against Gardnerella vaginalis
# Procedure: as §1, §2, §3, §4
# [3] = system: Candida albicans ATCC 10231; test: MBC against Candida albicans
# Procedure: (§5) The Gardnerella vaginalis ATCC 14018 strain, the Neisseria gonorrhoeae ATCC 43069 strain and the Candida albicans ATCC 10231 strain were also used for the experiment. [table] The other assayed microbial strains were cultured in the liquid media and in the incubation conditions specified in table A, following the operating procedure described above. Immediately after determining the value of the MIC for each substance, a volume equivalent to 50 μl was taken from each well and streaked on the surface of plates containing the solid medium. The plates were subsequently incubated at the conditions indicated for each microbial strain. After incubation at 37° C. for 24 hours, the number of colonies grown on the medium surface was counted thus determining the number of bacteria that survived after 24 hours of contact with the substance at the concentration present in the well. The MBC value defined as the lowest concentration of each substance capable of reducing the bacterial load by 99.9% in the previously defined assay conditions was determined through comparison between the number of bacteria that survived in each well and that of the bacterial inoculum deposited initially.
# [4] = system: Candida albicans ATCC 10231; test: MIC against Candida albicans
# Procedure: as §1, §2, §3
# Subsequently, 50 μl of diluted bacterial inoculum as specified previously were deposited in all wells of the plate, except for the 11th of each row. Only the liquid medium at single concentration but bacteria-free, was deposited in the 11th well, with the aim of providing negative control for each row. The described scheme was used for the assay with each of the assayed microbial strains.
# After incubation at the conditions indicated regarding each micro-organism, the microtitre plates were examined to verify, in each well, the presence or absence of bacterial growth. The minimum inhibitory concentration is defined as the lowest concentration of the substance still capable of inhibiting bacterial growth i.e. preventing the liquid from becoming turbid within the well.
# [5] = system: Gardnerella vaginalis ATCC 14018; test: MBC against Gardnerella vaginalis
# Procedure: as §5
substance,measurement,setting,value
lauryl glucoside/C12-C16 alkyl polyglucoside [Substance A2],MIC,[1],≦0.0012%
same,MIC,[2],0.0048%
same,MBC,[3],0.154%
same,MIC,[4],0.077%
same,MBC,[5],0.0048%
